Where “and” joins values, the source holds several entries; their conditions need not be identical. Identical values can stand only once. Entries after “also recorded” stand apart in the source; their conditions may differ.
Key:
[1] = tested on: chicken erythrocyte nuclear chromatin; assay: Quantified removal of intercalated AO from chicken erythrocyte smears, fluorescence plate reader; conditions: 100 mM xanthine, static, 10 seconds to two hours, AO 1 mM 10 sec stain, λex 485 nm, λem 530 nm
Description: Microscope slides (slides) coated with chicken erythrocytes were stained by placing the slide into a 50 ml beaker filled with a 1 mM solution of AO prepared in distilled water for approximately 10 seconds (static) followed by three successive 10 second rinses in distilled water before drying at room temperature. Care was taken to store all slides in the dark when not in use to avoid photobleaching. Stained slides were dried prior to being exposed to 50 ml of a 100 mM solution of either CAF or aminophylline (AM) for set time periods under static conditions. Exposure to the xanthine solution was followed by three 10-second rinses with distilled water and drying of the slides in the dark prior to fluorescence analysis. Control slides consisted of erythrocyte coated slides that were subsequently placed in only distilled water (no stain) prior to drying, blank slides (no erythrocytes) placed in AO staining solutions then dried served as negative controls, and erythrocyte coated cells stained with AO but exposed to only distilled water and not a xanthine solution served as positive control. The stained microscope slides were then attached by tape to a plastic frame (upside down 96-well plate cover) and fluorescence determined using a Perkin-Elmer Model HTS 7000 Bio Assay Reader with λex 485nm and λem 530 with the gain set at 40.
Distilled water served as solvent control (n=8).

[2] = Optical titration (absorbance) of acridine orange with xanthines/purines, Kassoc from delta absorbance; type: binding; conditions: for enhancement of the ability of theophylline to complex AO: Kassoc relative to theophylline; for Kassoc ± S.E.: binding affinity between acridine orange (10 μM) and compound, 5 mM HEPES pH 7.0, 25±1° C., 0 = no measurable association detected; for K ± S.D.: AO-CAF, Absorbance, AO [10 μM], CAF [1-5000 μM], this study
Description: A red spectral shift in the optical adsorption maximum of AO upon the addition of a particular xanthine, indicates the possibility of a complex being formed between the two compounds. Spectral shifts can be measured by optical titrations.
Optical titrations (serial additions of various xanthines to a solution of AO) were performed on a Beckman DU-600 Scanning Spectrophotometer (Beckman Instrument Co., New York, N.Y.) using a 3 mL (1-cm light path) quartz cuvette containing 2.0 mL of a […]. The DU600 Spectrophotometer was blanked with 2 mL of a pH 7.0 buffered 5 mM HEPES solution over the full range of wavelengths to be scanned prior to sample analysis. This reduced the need to subtract the background absorbance from the HEPES buffer. Optical absorbance scans were performed over a wavelength range preferably from 400 nm to 550 nm. […] The 10 μM AO solution was scanned before the start of each titration series to quantitatively monitor any changes in the absorbance spectrum. Optical absorbance experiments were performed using aliquots varying in volume from 1:L to 20:L taken from prepared xanthine stock solutions (5 mM to 50 mM) and titrated into the cuvette containing 2.0 mL of the 10 μM AO solution. The solution in the cuvette was then thoroughly mixed by 10 seconds of shaking before scanning. All titrations were performed at room temperature (25±1° C.). The absorbance spectra were measured in 1 nm intervals and stored in digital form. Digitized scan data was converted to a Lotus Spreadsheet file (*.wk1) using a conversion program supplied by the manufacturer (Beckman Instruments Inc.) then imported into a Microsoft Excel 97™ Workbook file (*.xls) and saved in this format for further analysis. Spectral data for each titration was combined and expressed in graphic form (Excel™) (X-axis=wavelength in nm; Y-axis=optical absorbance) for each xanthine titrated with AO. […] Adjusted absorption values were plotted and compared to spectra from non-complexed AO. This allowed for the visualization of an expected spectral shift that occurs when AO forms a complex with a xanthine.
The association constant, Kassoc, may be used to analyze the binding ability of modified xanthines to DNA intercalators. The association constant may be calculated based upon a differential shift in the absorbance spectrum. When the presence of the xanthine caused a spectral shift, a difference absorbance plot or delta plot was obtained. Delta plots were constructed by subtracting the adjusted absorption spectrum of AO in the presence of the xanthine from the initial spectrum of AO alone at each wavelength and for each aliquot of the titration. This procedure allowed for the creation of difference absorption values or delta absorption values. Delta absorption values obtained in this manner (Y-axis=delta absorption) were plotted against wavelength in nm (X-axis). The appearance of a single isobestic point was indicative of only two species present in solution, AO, and an AO complex. Graphic representation allowed for the selection of a wavelength with the maximum sensitivity for determining the association constant. This wavelength was characterized by the greatest positive response in delta absorbance values observed upon addition of each aliquot of xanthine to the AO solution. The AO-xanthine association or binding constant was determined by the following equilibrium expression: I+X≡IX EQUATION 1: […]
Where I represents the intercalator (AO), X represents the interceptor molecule (xanthine), and IX represents the AO-xanthine complex, respectively.

[3] = tested on: chicken erythrocyte nuclear chromatin; assay: Removal of acridine orange from stained chicken erythrocyte nuclear chromatin by xanthine rinse, fluorescence microscopy; conditions: for Nuclear color, Stain: before xanthine rinse; for Nuclear color, Re-stain: re-stained after xanthine rinse; for Nuclear color, After Rinse: xanthine rinse 50 mM, 1 hour, static
Description: Experiments were conducted to determine whether xanthines with known binding affinities to AO could compete with nuclear DNA for binding to AO and, therefore, be able to remove AO from its intercalation position within nuclear chromatin. Fluorescence microscopy was used to observe the fluorescent color produced by the AO-DNA complex following the staining of chicken erythrocyte nuclear chromatin with AO at both 5 μM and 5 mM.
Microscope slides smeared with chicken erythrocytes were stained with either 5 μM or 5 mM AO for a period of 30 minutes followed by three 10 second rinses in distilled water before drying at room temperature. Slides were then examined by fluorescence microscopy using a, Zeiss Model 63 Microscope with a xenon source fluorescent emitter. In some instances, a blocking filter was used to filter out fluorescence emission in the red and higher wavelengths. Photomicrographs were taken with Kodak Gold 35 mm ASA 1600 speed film, developed and color prints made. Comparative photomicrographs were taken at the same magnification and at the same exposure time. Selected photomicrographs were digitally scanned (Hewitt-Packard, Model 4L Scanner, Palo Alto, Calif.) and stored on 100 MB ZIP cartridges.
Slides were again examined by fluorescence microscopy and fluorescence color of the nuclei recorded. Slides were again stained with 5 mM AO then re-examined by fluorescence microscopy and fluorescence color of the nuclei recorded.
In the example shown in Table 4-3, the chicken erythrocytes were smeared and dried on a microscope slide prior to exposure to the AO solution for 30 minutes followed by water rinses to remove excess AO. Following drying, each slide was observed under fluorescence microscopy then placed in one of the xanthine solutions (50 ml volume) for 1 hour under static conditions, rinsed with water, then dried prior to being observed by fluorescence microscopy without a red blocking filter. Finally, each slide was restained following the initial staining procedures and again observed by fluorescence microscopy. Kassoc values are taken from Table 2-1 and are expressed in M^−1.

[4] = Table 4-2, in parentheses under compound, taken from Table 2-1
[5] = Table 4-3, taken from Table 2-1

Structure (SMILES): Cn1c(=O)c2[nH]cnc2n(C)c1=O.NCCN [1,3-dimethyl xanthine ethylenediamine]
- reduction of fluorescence (removal of AO) versus time of exposure ([1]; listed as AM): followed first order decay kinetics; also recorded: more rapid removal of AO from the nuclear chromatin
- enhancement of the ability of theophylline to complex AO [2]: 280%
- Kassoc [2, 4]: (596) M^−1
- Kassoc [2, 5]: 596 M⁻¹
- Kassoc ± S.E. [2]: 596.2 ± 6.5 M⁻¹
- Kassoc ± S.E. ([2]; listed as AM): 596 M⁻¹
- Kassoc ± S.E. ([2]; listed as aminophylline): 596.2 M⁻¹ and 596 M⁻¹
- effect of xanthine rinse on fluorescence of AO stained nuclear chromatin ([3]; 50 mM xanthine rinse): removal of most, if not all, green and red color
- Nuclear color, Stain ([3]; AO [5 μM] 30 minutes): Green
- Nuclear color, Re-stain ([3]; AO [5 μM]): Green
- Nuclear color, After Rinse ([3]; AO [5 μM]): None
- Nuclear color, Stain ([3]; AO [5 mM] 30 minutes): Red
- Nuclear color, Re-stain ([3]; AO [5 mM]): Red
- Nuclear color, After Rinse ([3]; AO [5 mM]): None

Structure (SMILES): Cn1c(=O)c2c(ncn2C)n(C)c1=O [1,3,7-trimethyl xanthine (caffeine), 1,3,7-trimethyl xanthine]
- reduction of fluorescence (removal of AO) versus time of exposure [1]: followed first order decay kinetics
- K ± S.D. [2]: 255 ± 5 M⁻¹ and 256 ± 5 M⁻¹
- K ± S.D. ([2]; listed as CAF-AO): ~250 M⁻¹
- enhancement of the ability of theophylline to complex AO [2]: 63%
- Kassoc ([2]; Table 2-2, Kassoc value with acridine orange (this report)): 256 M⁻¹
- Kassoc [2, 4]: (256) M^−1
- Kassoc [2, 5]: 256 M⁻¹
- Kassoc ± S.E. [2]: 255.7 ± 4.8^c M^−1
- Kassoc ± S.E. ([2]; listed as CAF): 256 M⁻¹
- Kassoc ± S.E. ([2]; listed as CAF-AO): 256 M⁻¹
- Kassoc ± S.E. ([2]; listed as CAP): ~256 M⁻¹
- Nuclear color, Stain ([3]; AO [5 μM] 30 minutes): Green
- Nuclear color, Re-stain ([3]; AO [5 μM]): Green
- Nuclear color, After Rinse ([3]; AO [5 μM]): None
- Nuclear color, Stain ([3]; AO [5 mM] 30 minutes): Red
- Nuclear color, Re-stain ([3]; AO [5 mM]): Red
- Nuclear color, After Rinse ([3]; AO [5 mM]): Red-

— US7662767B2, “Polynucleotide intercalator interceptors and inhibitors” (Materials Evolution and Development USA, Inc., priority 2000, dated 2010)
